Reference: patent EP2951180B1, “2,6,7,8 SUBSTITUTED PURINES AS HDM2 INHIBITORS” (Merck Sharp & Dohme Corp., priority 2013, dated 2014)

Molecular target: T1, HDM2 (Homo sapiens, UniProt Q00987)
T1 construct: Thioredoxin (N); made in house; host or cells: E. coli strain BL21(DE3)Rosetta
Experiment: HDM2 FRET assay (inhibition of binding of FITC labeled p53-pocket peptide to HDM2)
Conditions: 0.5 nM HDM2 (residues 17 to 125), 3nM peptide, two hour incubation at room temperature; read-out: FRET IC50
Procedure, shortened: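 Final: 0.5 nM His-HDM2, 3 nM FITC peptide, 0.25 nM Tb anti-His Ab; PBS, 0.01% BSA, 0.01% Tween-20; 0.1% DMSO.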

T1 sequence (Q00987 17-125): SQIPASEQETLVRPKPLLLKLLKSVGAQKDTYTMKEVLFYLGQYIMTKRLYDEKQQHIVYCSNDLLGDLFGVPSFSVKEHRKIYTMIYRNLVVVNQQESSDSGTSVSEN

First: C[C@@H]1COC[C@@H](C)N1c1nc2nc(-c3noc(=O)[nH]3)nc(-c3cccc(Cl)c3)c2n1C[C@H]1CC[C@H](C)CC1 [Example 16.60, 3-{6-(3-chlorophenyl)-8-[(3R,5R)-3,5-dimethylmorpholin-4-yl]-7-[(trans-4-methylcyclohexyl)methyl]-7H-purin-2-yl}-1,2,4-oxadiazol-5(4H)-one]
Second: C[C@@H]1COC[C@H](C)N1c1nc2nc(-c3noc(=O)[nH]3)nc(-c3cccc(Cl)c3)c2n1C[C@H]1CC[C@H](C)CC1 [Example 16.67, 3-{6-(3-chlorophenyl)-8-[(3R,5S)-3,5-dimethylmorpholin-4-yl]-7-[(trans-4-methylcyclohexyl)methyl]-7H-purin-2-yl}-1,2,4-oxadiazol-5(4H)-one]
The IC50 of the first is 2.9-fold lower: 2.23 nM for the first, 6.36 nM for the second.

`CC[C@H](Nc1nc2nc(-c3n[nH]c(=O)o3)nc(-c3cccc(Cl)c3)c2n1C[C@H]1CC[C@H](C)CC1)c1ccccc1` [Example 16.61, 5-[6-(3-chlorophenyl)-7-[(trans-4-methylcyclohexyl)methyl]-8-{[(1S)-1-phenylpropyl]amino} -7H-purin-2-yl]-1,3,4-oxadiazol-2(3H)-one] and `CC[C@H](Nc1nc2nc(-c3n[nH]c(=O)o3)nc(-c3cccc(Cl)c3)c2n1C[C@H]1CC[C@H](C)CC1)c1cccc(F)c1` [Example 16.76, 5-{6-(3-chlorophenyl)-8-{[(1S)-1-(3-fluorophenyl)propyl]amino}-7-[(trans-4-methylcyclohexyl)methyl]-7H-purin-2-yl}-1,3,4-oxadiazol-2(3H)-one] are within 1.5-fold of each other in IC50: 9.67 nM for the first, 13.2 nM for the second.

First: CN(Cc1ccccc1)c1nc2nc(-c3n[nH]c(=O)o3)nc(-c3cccc(Cl)c3)c2n1C[C@H]1CC[C@H](C)CC1 [Example 16.62, 5-{8-[benzyl(methyl)amino]-6-(3-chlorophenyl)-7-[(trans-4-methylcyclohexyl)methyl]-7H-purin-2-yl}-1,3,4-oxadiazol-2(3H)-one]
Second: COC[C@H](Nc1nc2nc(-c3noc(=O)[nH]3)nc(-c3cccc(Cl)c3)c2n1C[C@H]1CC[C@H](C)CC1)c1ccccc1 [Example 16.85, 3-{6-(3-chlorophenyl)-8-{[(1R)-2-methoxy-1-phenylethyl]amino}-7-[(trans-4-methylcyclohexyl)methyl]-7H-purin-2-yl}-1,2,4-oxadiazol-5(4H)-one]
The IC50 of the first is 47-fold higher: 136 nM for the first, 2.87 nM for the second.

Going from `COC(C)(C)[C@@H]1COCCN1c1nc2nc(-c3noc(=O)[nH]3)nc(-c3cccc(Cl)c3)c2n1C[C@H]1CC[C@H](C)CC1` [Example 16.63, 3-{6-(3-chlorophenyl)-8-[(3S)-3-(1-methoxy-1-methylethyl)morpholin-4-yl]-7-[(trans-4-methylcyclohexyl)methyl]-7H-purin-2-yl}-1,2,4-oxadiazol-5(4H)-one] to `C[C@H]1CC[C@H](Cn2c(N3CCC[C@H]3C(F)(F)F)nc3nc(-c4noc(=O)[nH]4)nc(-c4cccc(Cl)c4)c32)CC1` [Example 16.69, 3-{6-(3-chlorophenyl)-7-[(trans-4-methylcyclohexyl)methyl]-8-[(2S)-2-(trifluoromethyl)pyrrolidin-1-yl]-7H-purin-2-yl}-1,2,4-oxadiazol-5 (4H)-one], the IC50 falls from 19.7 nM to 0.918 nM (21-fold). The second is the more potent here.

Compared with `CC[C@H](Nc1nc2nc(-c3noc(=O)[nH]3)nc(-c3cccc(Cl)c3)c2n1C[C@H]1CC[C@H](C)CC1)c1cccc(F)c1` [Example 16.64, 3-{6-(3-chlorophenyl)-8-{[(1S)-1-(3-fluorophenyl)propyl]amino}-7-[(trans-4-methylcyclohexyl)methyl]-7H-purin-2-yl}-1,2,4-oxadiazol-5(4H)-one], `C[C@@H]1CN(C)C(=O)CN1c1nc2nc(-c3noc(=O)[nH]3)nc(-c3cccc(Cl)c3)c2n1C[C@H]1CC[C@H](C)CC1` [Example 16.68, (5R)-4-[6-(3-chlorophenyl)-7-[(trans-4-methylcyclohexyl)methyl]-2-(5-oxo-4,5-dihydro-1,2,4-oxadiazol-3-yl)-7H-purin-8-yl]-1,5-dimethylpiperazin-2-one] is 3.6-fold higher in IC50: 3.16 nM for the first, 11.5 nM for the second.

First: C[C@H]1CC[C@H](Cn2c(N3CCC[C@H]3C(F)(F)F)nc3nc(-c4noc(=O)[nH]4)nc(-c4cncc(Cl)c4)c32)CC1 [Example 16.74, 3-{6-(5-chloropyridin-3-yl)-7-[(trans-4-methylcyclohexyl)methyl]-8-[(2S)-2-(trifluoromethyl)pyrrolidin-1-yl]-7H-purin-2-yl}-1,2,4-oxadiazol-5(4H)-one]
Second: C[C@H]1CC[C@H](Cn2c(N3CCO[C@H]4CCC[C@@H]43)nc3nc(-c4noc(=O)[nH]4)nc(-c4cncc(Cl)c4)c32)CC1 [Example 16.86, 3-{6-(5-chloropyridin-3-yl)-8-[(4aS,7aS)-hexahydrocyclopenta [b][1,4]oxazin-4(4aH)-yl]-7-[(trans-4-methylcyclohexyl)methyl]-7H-purin-2-yl}-1,2,4-oxadiazol-5(4H)-one]
The IC50 of the first is 590-fold lower: 0.585 nM for the first, 344 nM for the second.

First: CC(C)[C@@H]1COCCN1c1nc2nc(-c3n[nH]c(=O)o3)nc(-c3cccc(Cl)c3)c2n1C[C@H]1CC[C@H](C)CC1 [Example 16.75, 5-{6-(3-chlorophenyl)-7-[(trans-4-methylcyclohexyl)methyl]-8-[(3R)-3-(1-methylethyl)morpholin-4-yl]-7H-purin-2-yl}-1,3,4-oxadiazol-2(3H)-one]
Second: C[C@H]1CC[C@H](Cn2c(N3CCOCC34CC4)nc3nc(-c4n[nH]c(=O)o4)nc(-c4cccc(Cl)c4)c32)CC1 [Example 16.88, 5-[6-(3-chlorophenyl)-7-[(trans-4-methylcyclohexyl)methyl]-8-(7-oxa-4-azaspiro[2.5]oct-4-yl)-7H-purin-2-yl]-1,3,4-oxadiazol-2(3H)-one]
The IC50 of the first is 2.7-fold lower: 14.7 nM for the first, 39.1 nM for the second.

Going from `C[C@H]1CC[C@H](Cn2c(N3CCOCC34CC4)nc3nc(-c4noc(=O)[nH]4)nc(-c4cccc(Cl)c4)c32)CC1` [Example 16.79, 3-[6-(3-chlorophenyl)-7-[(trans-4-methylcyclohexyl)methyl]-8-(7-oxa-4-azaspiro[2.5]oct-4-yl)-7H-purin-2-yl]-1,2,4-oxadiazol-5(4H)-one] to `C[C@H]1CC[C@H](Cn2c(N3CCOCC34CCC4)nc3nc(-c4noc(=O)[nH]4)nc(-c4cccc(Cl)c4)c32)CC1` [Example 16.80, 3-[6-(3-chlorophenyl)-7-[(trans-4-methylcyclohexyl)methyl]-8-(8-oxa-5-azaspiro[3.5]non-5-yl)-7H-purin-2-yl]-1,2,4-oxadiazol-5(4H)-one], the IC50 falls from 21.6 nM to 8.7 nM (2.5-fold). The second is the more potent here.

Compared with `C[C@H]1CC[C@H](Cn2c(N3CCO[C@H]4CCC[C@@H]43)nc3nc(-c4noc(=O)[nH]4)nc(-c4cccc(Cl)c4)c32)CC1` [Example 16.81, 3-{6-(3-chlorophenyl)-8-[(4aS,7aS)-hexahydrocyclopenta [b][1,4]oxazin-4(4aH)-yl]-7-[(trans-4-methylcyclohexyl)methyl]-7H-purin-2-yl}-1,2,4-oxadiazol-5(4H)-one], `C[C@H]1CC[C@H](Cn2c(N3CCO[C@@H]4CCC[C@H]43)nc3nc(-c4noc(=O)[nH]4)nc(-c4cccc(Cl)c4)c32)CC1` [Example 16.82, 3-{6-(3-chlorophenyl)-8-[(4aR,7aR)-hexahydrocyclopenta [b][1,4]oxazin-4(4aH)-yl]-7-[(trans-4-methylcyclohexyl)methyl]-7H-purin-2-yl}-1,2,4-oxadiazol-5(4H)-one] is 95-fold lower in IC50: 105 nM for the first, 1.1 nM for the second. The second is the more potent here.

First: C[C@H]1CC[C@H](Cn2c(N3CCO[C@H]4CCC[C@@H]43)nc3nc(-c4n[nH]c(=O)o4)nc(-c4cccc(Cl)c4)c32)CC1 [Example 16.83, 5-{6-(3-chlorophenyl)-8-[(4aS,7aS)-hexahydrocyclopenta [b][1,4]oxazin-4(4aH)-yl]-7-[(trans-4-methylcyclohexyl)methyl]-7H-purin-2-yl}-1,3,4-oxadiazol-2(3H)-one]
Second: C[C@H]1CC[C@H](Cn2c(N3CCO[C@@H]4CCC[C@H]43)nc3nc(-c4n[nH]c(=O)o4)nc(-c4cccc(Cl)c4)c32)CC1 [Example 16.84, 5-{6-(3-chlorophenyl)-8-[(4aR,7aR)-hexahydrocyclopenta [b][1,4]oxazin-4(4aH)-yl]-7-[(trans-4-methylcyclohexyl)methyl]-7H-purin-2-yl}-1,3,4-oxadiazol-2(3H)-one]
The IC50 of the first is 75-fold higher: 186 nM for the first, 2.47 nM for the second. The second is the more potent here.

`C[C@H]1CC[C@H](Cn2c(N3CCO[C@@H]4CCC[C@H]43)nc3nc(-c4noc(=O)[nH]4)nc(-c4cncc(Cl)c4)c32)CC1` [Example 16.87, 3-{6-(5-chloropyridin-3-yl)-8-[(4aR,7aR)-hexahydrocyclopenta [b][1,4]oxazin-4(4aH)-yl]-7-[(trans-4-methylcyclohexyl)met52hyl]-7H-purin-2-yl}-1,2,4-oxadiazol-5(4H)-one] and `C[C@H]1CC[C@H](Cn2c(N3CCO[C@@H]4CCC[C@H]43)nc3nc(-c4n[nH]c(=O)o4)nc(-c4cncc(Cl)c4)c32)CC1` [Example 16.90, 5-{6-(5-chloropyridin-3-yl)-8-[(4aR,7aR)-hexahydrocyclopenta [b][1,4]oxazin-4(4aH)-yl]-7-[(trans-4-methylcyclohexyl)methyl]-7H-purin-2-yl}-1,3,4-oxadiazol-2(3H)-one] are within 1.5-fold of each other in IC50: 1.56 nM for the first, 2.28 nM for the second.

First: C[C@H]1CC[C@H](Cn2c(N3CCOCC34CCC4)nc3nc(-c4n[nH]c(=O)o4)nc(-c4cccc(Cl)c4)c32)CC1 [Example 16.89, 5-[6-(3-chlorophenyl)-7-[(trans-4-methylcyclohexyl)methyl]-8-(8-oxa-5-azaspiro[3.5]non-5-yl)-7H-purin-2-yl]-1,3,4-oxadiazol-2(3H)-one]
Second: C[C@H]1CC[C@H](Cn2c(N3CCO[C@H]4CCC[C@@H]43)nc3nc(-c4n[nH]c(=O)o4)nc(-c4cncc(Cl)c4)c32)CC1 [Example 16.91, 5-{6-(5-chloropyridin-3-yl)-8-[(4aS,7aS)-hexahydrocyclopenta [b][1,4]oxazin-4(4aH)-yl]-7-[(trans-4-methylcyclohexyl)methyl]-7H-purin-2-yl}-1,3,4-oxadiazol-2(3H)-one]
The IC50 of the first is 16-fold lower: 25 nM for the first, 403 nM for the second.
